In PubChem BioAssay AID1963840 (Molecular Pharmacology Branch, DTP, NCI, 2024):

Test system: 695427-040-R-J1-PDC complex spheroid viability
Assay: Anticancer human tumor 695427-040-R-J1-PDC patient-derived colon adenocarcinoma cell line growth inhibition [POLQ]
Settings: for IC50: curve of first compound; for viability, T/C: stronger effect = lower value; active = viability on the fitted dose curve at most 10% of control; inactive = the rest
Method: Multicellular complex tumor spheroid response to Polymerase (POL) inhibitors (novobiocin, ART-558, RP6685) in combination with a variety of drugs and investigational agents in selected tumor cell lines
The POL inhibitors (novobiocin, ART-558, and RP6685) were evaluated both individually and in combination with standard of care and investigational anticancer small molecules within a complex spheroid model of solid tumors. . Complex spheroids include a stromal component modeled by human endothelial cells (HUVEC) and fibroblasts modeled by human mesenchymal stem cells (MSCs). The concentration ranges selected for each drug and investigational agent were based upon clinically achievable concentrations if the clinical Cmax of the agent was known.
Compounds. The drugs and investigational agents: novobiocin (NSC847541), ART-558 (NSC835418), RP-6685 (NSC848927), peposertib (NSC802822), ceralasertib (NSC780249), elimusertib (NSC800525), camonsertib (NSC841442), AZD-1390 (NSC803789), olaparib (NSC753686), talazoparib (NSC767125), rucaparib (NSC756644), sotorasib (NSC818433), MRTX-1133 (NSC836407), SN-38 (NSC673596), topotecan (NSC609699), epotoside (NSC141540), doxorubicin (NSC123127), gemcitabine (NSC613327), 5-fluorouracil (NSC19893), paclitaxel (NSC125973), vemurafenib (NSC761431), MSA-2 (NSC828583), SN-011 (NSC837082), adavosertib (NSC754352), prexasertib (NSC758257), carboplatin (NSC241240) and oxaliplatin (NSC266046), were obtained from the National Cancer Institute (NCI) Developmental Therapeutics Program Chemical Repository (21). The FDA-approved anticancer drug set is available from the Developmental Therapeutics Program at https://dtp.cancer.gov/organization/dscb/obtaining/. […] The stock solutions were prepared in dimethyl sulfoxide (DMSO, Sigma-Aldrich, St. Louis, MO, cat. D2650), except for the platinum compounds which were prepared in saline (Quality Biological, Gaithersburg, MD, cat. 114-055-101), at 800-fold the tested concentration and stored at -70 degrees C prior to their use. All drugs and investigational agents were tested over a range starting from a high concentration at or near the clinical Cmax and decreasing in half-log increments. If the clinical Cmax for an agent had not been determined, the highest concentration tested was 10 microM, except for SN-38, which was tested at a high concentration of 1 microM.
Cell Culture. All cells were maintained in an incubator at 37 degrees C and 5% CO2 with 95% humidity. The PDC lines were cultured according to standard operating procedures established by the NCI PDMR (https://pdmr.cancer.gov). Table 3 of the manuscript, lists the cell lines along with the number of the three cell types plated to form the mct-spheroids and media for tumor cell growth. After thawing, all PDC lines, except 997537-175-T-J1-PDC and 415267-285-R-J2-PDC, were cultured in Matrigel-coated flasks prepared with a working solution of 1X Ham's F-12 nutrient mix, without supplementation (Thermo Fisher Scientific, cat. 11765054), 100 U/mL penicillin-streptomycin (Thermo Fisher Scientific, cat. 15140122), and 2.5% Matrigel (Corning Inc., Corning, NY, cat. 354248) for the first three passages. The two PDC lines 997537-175-T-J1-PDC and 415267-285-R-J2-PDC were cultured on uncoated flasks. The 857933-349-R-J2-PDC line was cultured in 6C/Colon 1B media containing advanced DMEM/F-12 (Thermo Fisher Scientific, cat. 12634028), 10 mM HEPES (Thermo Fisher Scientific, cat. 15630080), 1X GlutaMAX supplement (Thermo Fisher Scientific, cat. 35050061), 0.1 mg/mL primocin (InvivoGen, San Diego, CA, cat. ant-pm-2), 10% defined fetal bovine serum, heat inactivated (HyClone Laboratories Inc., Logan, UT, cat. SH30070.03HI), 50% L-WRN conditioned media (ATCC, cat. CRL-3276), 1.25 mM N-Acetyl-L-cysteine (Sigma-Aldrich, cat. A9165), 10 mM nicotinamide (Sigma-Aldrich, cat. N0636), 1X B-27 supplement (Thermo Fisher Scientific, cat. 17504044), 1X N-2 supplement (Thermo Fisher Scientific, cat. […]

[1] = second compound 0.0316 µM, first compound 0.0316 µM
[2] = second compound 0.0316 µM, first compound 0.1 µM
[3] = second compound 0.0316 µM, first compound 0.316 µM
[4] = second compound 0.0316 µM, first compound 1 µM
[5] = second compound 0.0316 µM, first compound 3.16 µM
[6] = second compound 0.0316 µM, first compound 10 µM
[7] = second compound 0.1 µM, first compound 0.0316 µM
[8] = second compound 0.1 µM, first compound 0.1 µM
[9] = second compound 0.1 µM, first compound 0.316 µM
[10] = second compound 0.1 µM, first compound 1 µM
[11] = second compound 0.1 µM, first compound 3.16 µM
[12] = second compound 0.1 µM, first compound 10 µM
[13] = second compound 0.316 µM, first compound 0.0316 µM
[14] = second compound 0.316 µM, first compound 0.1 µM
[15] = second compound 0.316 µM, first compound 0.316 µM
[16] = second compound 0.316 µM, first compound 1 µM
[17] = second compound 0.316 µM, first compound 3.16 µM
[18] = second compound 0.316 µM, first compound 10 µM
[19] = second compound 1 µM, first compound 0.0316 µM
[20] = second compound 1 µM, first compound 0.1 µM
[21] = second compound 1 µM, first compound 0.316 µM
[22] = second compound 1 µM, first compound 1 µM
[23] = second compound 1 µM, first compound 3.16 µM
[24] = second compound 1 µM, first compound 10 µM
[25] = second compound 3.16 µM, first compound 0.0316 µM
[26] = second compound 3.16 µM, first compound 0.1 µM
[27] = second compound 3.16 µM, first compound 0.316 µM
[28] = second compound 3.16 µM, first compound 1 µM
[29] = second compound 3.16 µM, first compound 3.16 µM
[30] = second compound 3.16 µM, first compound 10 µM
[31] = second compound 10 µM, first compound 0.0316 µM
[32] = second compound 10 µM, first compound 0.1 µM
[33] = second compound 10 µM, first compound 0.316 µM
[34] = second compound 10 µM, first compound 1 µM
[35] = second compound 10 µM, first compound 3.16 µM
[36] = second compound 10 µM, first compound 10 µM
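Also: spheroids exposed to compounds for seven days.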

Nc1ccn(C2OC(CO)C(O)C2(F)F)c(=O)n1 (centres undefined) + COC1C(OC(N)=O)C(O)C(Oc2ccc3c(O)c(NC(=O)c4ccc(O)c(CC=C(C)C)c4)c(=O)oc3c2C)OC1(C)C
> 10 µM: IC50 (second compound 0.0316 µM) | IC50 (second compound 0.1 µM) | IC50 (second compound 0.316 µM) | IC50 (second compound 1 µM) | IC50 (second compound 3.16 µM) | IC50 (second compound 10 µM)
inactive: viability, T/C [1] 82% | viability, T/C [2] 81.5% | viability, T/C [3] 75.1% | viability, T/C [4] 72.2% | viability, T/C [5] 63.9% | viability, T/C [6] 55.2% | viability, T/C [7] 91.1% | viability, T/C [8] 82.6% | viability, T/C [9] 73.1% | viability, T/C [10] 70% | viability, T/C [11] 68.3% | viability, T/C [12] 50.5% | viability, T/C [13] 96.2% | viability, T/C [14] 78.5% | viability, T/C [15] 76.6% | viability, T/C [16] 70.2% | viability, T/C [17] 63.5% | viability, T/C [18] 47.6% | viability, T/C [19] 92% | viability, T/C [20] 84% | viability, T/C [21] 71.8% | viability, T/C [22] 70% | viability, T/C [23] 62.5% | viability, T/C [24] 48.6% | viability, T/C [25] 89.2% | viability, T/C [26] 81.9% | viability, T/C [27] 72.5% | viability, T/C [28] 67% | viability, T/C [29] 63.2% | viability, T/C [30] 52.1% | viability, T/C [31] 93.1% | viability, T/C [32] 82.3% | viability, T/C [33] 75.3% | viability, T/C [34] 73.1% | viability, T/C [35] 66.4% | viability, T/C [36] 52.1%

O=c1[nH]cc(F)c(=O)[nH]1 + COC1C(OC(N)=O)C(O)C(Oc2ccc3c(O)c(NC(=O)c4ccc(O)c(CC=C(C)C)c4)c(=O)oc3c2C)OC1(C)C
> 10 µM: IC50 (second compound 0.0316 µM) | IC50 (second compound 0.1 µM) | IC50 (second compound 0.316 µM) | IC50 (second compound 1 µM) | IC50 (second compound 3.16 µM) | IC50 (second compound 10 µM)
inactive: viability, T/C [1] 95.8% | viability, T/C [2] 101% | viability, T/C [3] 111% | viability, T/C [4] 103% | viability, T/C [5] 103% | viability, T/C [6] 107% | viability, T/C [7] 106% | viability, T/C [8] 107% | viability, T/C [9] 108% | viability, T/C [10] 106% | viability, T/C [11] 112% | viability, T/C [12] 97.2% | viability, T/C [13] 114% | viability, T/C [14] 106% | viability, T/C [15] 112% | viability, T/C [16] 99.5% | viability, T/C [17] 109% | viability, T/C [18] 96.4% | viability, T/C [19] 104% | viability, T/C [20] 101% | viability, T/C [21] 108% | viability, T/C [22] 101% | viability, T/C [23] 97.6% | viability, T/C [24] 96.8% | viability, T/C [25] 109% | viability, T/C [26] 97.7% | viability, T/C [27] 99.2% | viability, T/C [28] 105% | viability, T/C [29] 106% | viability, T/C [30] 97.9% | viability, T/C [31] 99.6% | viability, T/C [32] 97.1% | viability, T/C [33] 105% | viability, T/C [34] 101% | viability, T/C [35] 98.3% | viability, T/C [36] 101%
